From US20160367623A1, “AGONISTS OF GUANYLATE CYCLASE USEFUL FOR THE TREATMENT OF GASTROINTESTINAL DISORDERS, INFLAMMATION, CANCER AND OTHER DISORDERS” (priority 2015, published 2016)
Bridge positions count the residues as written; N and C are the ends. Ends that are not written are not given here.

What was measured:
[1] = test system: patients with chronic idiopathic constipation (CIC); assay: First phase 3 CIC trial: durable overall CSBM responders (primary endpoint); type: in vivo, human; design: Odds Ratio (adjusted), durable overall CSBM responders: reference not given here; details: for Non-Responders, % / Durable Overall CSBM Responders, %: ITT; for Durable Overall CSBM Responders, %: MRA; for proportion of durable overall responders: 12-week treatment, intention-to-treat population, placebo 10.2%; for Odds Ratio (adjusted), durable overall CSBM responders / Difference in Proportions (adjusted), responders minus placebo: adjusted for gender; for Odds Ratio (adjusted), durable overall CSBM responders: CMH
Excerpt: Both trials include a two-week pre-treatment baseline period, a 12-week treatment period, and a two-week post-treatment period. The phase 3 CIC program was designed to support regulatory submission in the U. S.
The primary endpoint for both trials is the proportion of durable overall responders (%), which is the current regulatory endpoint required for U.S. approval in CIC. The FDA has defined a durable overall responder as a patient who fulfills both ≧3 complete spontaneous bowel movements (CSBMs) per week plus an increase of ≧1 CSBM from baseline in the same week, for 9 out of the 12 treatment weeks. In addition, the same patient must be an overall responder for at least 3 of the last 4 treatment weeks in order to be considered a durable overall responder.
Patients were selected using Rome 3 criteria modified for CIC and had (1) fewer than 3 defecations per week, (2) loose stools occurring rarely without laxatives, (3) inadequate criteria for irritable bowel syndrome with constipation (IBS-C), and (4) at least two of the following applied to at least 25% of defecations: (a) straining during evacuation, (b) lumpy or hard stools, (c) sensation of anorectal obstruction or blockage. Rome 3 requires patients to fulfill the criteria for the last 3 months with symptom onset at least 6 months prior to diagnosis.

[2] = test system: patients with chronic idiopathic constipation (CIC); assay: First phase 3 CIC trial: treatment emergent adverse events, safety

“Asn^1-Asp^2-Glu^3-Cys^4-Glu^5-Leu^6-Cys^7-Val^8-Asn^9-Val^10-Ala^11-Cys^12-Thr^13-Gly^14-Cys^15-Leu^16 (NDECELCVNVACTGCL; disulfide 4-12, 7-15) [Plecanatide]” was tested, and the “Non-Responders, %” value ([1]; 3 mg (N = 453)) was 79.0%, the “Durable Overall CSBM Responders, %” value ([1]; 3 mg (N = 453)) was 21.0% and the “proportion of durable overall responders” value ([1]; 3.0 mg once-a-day) was 21.0%. The “Odds Ratio (adjusted), durable overall CSBM responders” value ([1]; 3 mg vs placebo) was 0.429, the “Difference in Proportions (adjusted), responders minus placebo” value ([1]; 3 mg) was 0.107 and the “Non-Responders, %” value ([1]; 6 mg (N = 441)) was 80.5%. For the same substance, the “Durable Overall CSBM Responders, %” value ([1]; 6 mg (N = 441)) was 19.5%, the “proportion of durable overall responders” value ([1]; 6.0 mg once-a-day) was 19.5% and the “Odds Ratio (adjusted), durable overall CSBM responders” value ([1]; 6 mg vs placebo) was 0.469. The “Difference in Proportions (adjusted), responders minus placebo” value ([1]; 6 mg) was 0.094, the “Non-Responders, %” value ([1]; Active Combined (N = 894)) was 79.8% and the “Durable Overall CSBM Responders, %” value ([1]; Active Combined (N = 894)) was 20.2%. The “Serious TEAE Infections and infestations, Reasonable Possibility: E events” value ([2]; 3 mg (N = 474)) was 0, the “Serious TEAE Infections and infestations, Reasonable Possibility: N patients” value ([2]; 3 mg (N = 474)) was 0 and the “Serious TEAE Infections and infestations: E events” value ([2]; 3 mg (N = 474)) was 0. For the same substance, the “Serious TEAE Infections and infestations: N patients” value ([2]; 3 mg (N = 474)) was 0, the “Serious TEAE Infections and infestations, Reasonable Possibility: E events” value ([2]; 6 mg (N = 457)) was 0 and the “Serious TEAE Infections and infestations, Reasonable Possibility: N patients” value ([2]; 6 mg (N = 457)) was 0. The “Serious TEAE Infections and infestations: % patients” value ([2]; 6 mg (N = 457)) was “(0.4) %”, the “Serious TEAE Infections and infestations: E events” value ([2]; 6 mg (N = 457)) was 2 and the “Serious TEAE Infections and infestations: N patients” value ([2]; 6 mg (N = 457)) was 2.
